Results: US20240174727A1, “LONG-ACTING NATRIURETIC PEPTIDES AND USES THEREOF” (Eli Lilly and Company, priority 2022, published 2024)

Experiments:
[1] = Pharmacokinetics in male Sprague Dawley rats; assay type: in vivo; settings: rat, sc, mean, single subcutaneous administration of 200 nMol/kg, plasma
Experimental: The pharmacokinetics of the exemplary analogs are evaluated following a single subcutaneous administration of […] to male Sprague Dawley rats. Blood samples are collected over 120 hours, and resulting individual plasma concentrations are used to calculate pharmacokinetic parameters. Peptide plasma (K3 EDTA) concentrations are determined using a qualified LC/MS method that measured the intact mass of the ANP polypeptide. Each peptide and an analog as an internal standard are extracted from 100% specie specified plasma using methanol with 0.1% formic acid. A Thermo Q-Exactive, High Resolution Instrument, and a Thermo Easy Spray PepMap are combined for LC/MS detection.

plasma cGMP = test: In vivo monkey studies, plasma cGMP ELISA; design: species or system male cynomolgus monkeys
Experimental: In vivo monkey studies were conducted as described in detail below. Young adult-to-adult male cynomolgus monkeys were given a single dose subcutaneously (SC). Blood was collected predose and at various pre-determined timepoints throughout the study period. Aliquot of cynomolgus monkey plasma was received for cyclic cGMP (cGMP) measurement and stored at −80° C. prior to use.
Control plasma was made for determining the recovery rate of spike-in cGMP using Enzo cGMP complete ELISA kit (Enzo Life Sciences, Inc, Farmingdale, NY, cat no. ADI-901-164). Briefly, blood from male Sprague Dawley rats (Inotiv, Indianapolis, IN), about 7 months old, was collected in a BD Vacutainer EDTA tube (Becton Dickinson, Franklin Lakes, NJ, cat no. BD-367856) with volume of approximate 4 mL through retro orbital bleeding. Plasma was prepared by spinning the tube in an Eppendorf Refrigerated Centrifuge 5810R (Brinkman Instruments, Inc, Westbury, NY) at 3500 rpm (3000×g) for 10 min at 4° C. Plasma was collected as Positive Control plasma. Cyclic GMP (cGMP standard from Enzo cGMP complete ELISA kit) was added to the positive control plasma at a final concentration of additional 40 nM. Positive Control and Spiked-in Control plasma were aliquoted and stored at −80° C.
The cGMP content was measured using the Enzo cGMP complete ELISA kit following the manufacturer's directions with modifications as described below. The cGMP standards provided in the kit were diluted 1:3 ranging from 50 nM to 0.023 nM in 1× assay buffer that was diluted in water from 2× assay buffer provided in the kit. The cGMP standards ([…]) were transferred to a 96-well polypropylene plate (Thermo Scientific, cat no. 442587).
Plasma samples were thawed from −80° C. and diluted 1:20 in 1× assay buffer in the above plate with a final volume of 150 μL. Assay buffer was added (150 μL) for both a non-specific binding control (in the absence of cGMP antibody) and a maximum binding control (in the absence of competing cGMP) in duplicate wells. Positive Control and Spiked-in Control plasma were diluted 1:20 in 1× assay buffer with a final volume of 150 μL in duplicate wells of the above plate. All diluted plasma was mixed by pipetting up and down several times.
Acetylation reagent mix was prepared by adding 1-part of acetic anhydride into 2-parts of triethylamine provided in the kit and mixing well using Vortex (Scientific Industries, Inc, Bohemia, NY). All controls, standards, and plasma samples were acetylated by adding 15 μL of acetylation reagent mix into the plate, one column at a time, and shaking for 1 min on a Titer Plate Shaker (Lab-Line Instrument, Inc., Melrose Park, IL) at room temperature. The plate was shaken for an additional 1 min following the acetylation of the last column to ensure the reaction was completed.
Acetylated controls, standard and plasma samples were transferred (100 μL) to an ELISA plate (n=1). Then 50 μL of cGMP conjugate were added to each well followed by the addition of 50 μL cGMP antibody to each well except for two non-specific binding wells, in which 50 μL of 1× assay buffer were added. The plate was then sealed and shaken for 2 h at room temperature on the plate shaker. Following this incubation, the plate was washed five times using 200 μL of 1× wash buffer diluted in water from 5× wash buffer provided in the kit. Then, 200 μL of para-Nitrophenylphosphate (pNpp) were added to each well. The plate was sealed with a new plate sealer and shaken in dark for 1 h at room temperature on the plate shaker. Finally, 50 μL of stop solution were added to each well to stop the enzyme reaction. The plate was then read at 405 nm using SpectraMax Plus (Molecular Devices, San Jose, CA).
The mean absorbance at 405 nm (O.D. 405 nm) for the non-specific binding controls was subtracted from the O.D. 405 nm of all samples. The subtracted O.D. 405 nm of all samples were then normalized with the mean subtracted O.D. 405 nm of the maximum binding controls as B/B0%. […]

CC[C@H](C)[C@@H]1NC(=O)[C@H](CCCNC(=N)N)NC(=O)[C@H](CC(=O)O)NC(=O)[C@H]([C@@H](C)CC)NC(=O)[C@H](CCCNC(=N)N)NC(=O)CNC(=O)CNC(=O)[C@H](Cc2ccccc2)NC(=O)[C@@H](NC(=O)[C@H](CO)NC(=O)[C@H](CO)NC(=O)[C@H](CCCNC(=N)N)NC(=O)CCNC(=O)[C@H](CCCCN)NC(=O)[C@H](CCC(=O)O)NC(=O)CNC(=O)[C@H](CCCCN)NC(=O)[C@H](CCC(=O)O)NC(=O)[C@H](CCCCN)NC(=O)[C@H](CCC(=O)O)NC(=O)[C@H](CCCCN)NC(=O)[C@H](CCC(=O)O)NC(=O)CC[C@H](NC(=O)CCCCCCCCCCCCCCCCCCC(=O)O)C(=O)O)CSCSC[C@@H](C(=O)N2CCC[C@H]2C(=O)N[C@@H](CO)C(=O)N[C@@H](Cc2ccccc2)C(=O)N[C@@H](CCCNC(=N)N)C(=O)N[C@@H](Cc2c[nH]cn2)C(=O)NCC(=O)NCC(=O)N2CCC[C@H]2C(=O)N[C@@H](CO)C(=O)N[C@@H](CO)C(=O)NCC(=O)N[C@@H](C)C(=O)N2CCC[C@H]2C(=O)N2CCC[C@H]2C(=O)N2CCC[C@H]2C(=O)N[C@@H](CO)C(N)=O)NC(=O)CNC(=O)[C@H](CC(C)C)NC(=O)CNC(=O)[C@H](CO)NC(=O)[C@H](Cc2ccc(O)cc2)NC(=O)[C@H](Cc2c[nH]cn2)NC(=O)CNC1=O [Example 56]
CL/F [1]: 0.187 mL/min/kg
half-life ([1]; read-out: t½ (converted)): 2160 min
Net cGMP (nM) Change from Baseline 0.083 h (plasma cGMP; dose 100 nmol/kg, 0.083 h postdose, monkey plasma): -2.8 nM
Net cGMP (nM) Change from Baseline 0.25 h (plasma cGMP; dose 100 nmol/kg, 0.25 h postdose, monkey plasma): -0.66 nM
Net cGMP (nM) Change from Baseline 0.5 h (plasma cGMP; dose 100 nmol/kg, 0.5 h postdose, monkey plasma): -0.65 nM
Net cGMP (nM) Change from Baseline 1 h (plasma cGMP; dose 100 nmol/kg, 1 h postdose, monkey plasma): -0.51 nM
Net cGMP (nM) Change from Baseline 2 h (plasma cGMP; dose 100 nmol/kg, 2 h postdose, monkey plasma): -1.82 nM
Net cGMP (nM) Change from Baseline 4 h (plasma cGMP; dose 100 nmol/kg, 4 h postdose, monkey plasma): 1.83 nM
Net cGMP (nM) Change from Baseline 8 h (plasma cGMP; dose 100 nmol/kg, 8 h postdose, monkey plasma): 10.57 nM
Net cGMP (nM) Change from Baseline 12 h (plasma cGMP; dose 100 nmol/kg, 12 h postdose, monkey plasma): 12.11 nM
Net cGMP (nM) Change from Baseline 24 h (plasma cGMP; dose 100 nmol/kg, 24 h postdose, monkey plasma): 17.03 nM
Net cGMP (nM) Change from Baseline 36 h (plasma cGMP; dose 100 nmol/kg, 36 h postdose, monkey plasma): 16.59 nM
Net cGMP (nM) Change from Baseline 48 h (plasma cGMP; dose 100 nmol/kg, 48 h postdose, monkey plasma): 11.66 nM
Net cGMP (nM) Change from Baseline 72 h (plasma cGMP; dose 100 nmol/kg, 72 h postdose, monkey plasma): 11.45 nM
Net cGMP (nM) Change from Baseline 96 h (plasma cGMP; dose 100 nmol/kg, 96 h postdose, monkey plasma): 9.32 nM
Net cGMP (nM) Change from Baseline 120 h (plasma cGMP; dose 100 nmol/kg, 120 h postdose, monkey plasma): 9.31 nM
Net cGMP (nM) Change from Baseline 144 h (plasma cGMP; dose 100 nmol/kg, 144 h postdose, monkey plasma): 7.36 nM
Net cGMP (nM) Change from Baseline 168 h (plasma cGMP; dose 100 nmol/kg, 168 h postdose, monkey plasma): 1.99 nM
net cGMP levels (result in words) (plasma cGMP; monkeys, single SC dose, plasma): increased net cGMP levels
